One data set in a line: Absorption spectra. It counts as physicochemical. Here is the method: (§1) For the ester ε=5600 M^−1 cm^−1, while the acid has ε=4200 M^−1 cm^−1. For preparative photolyses Pyrex-filtered light from a Hanovia medium pressure mercury lamp was used. A sunlamp was also effective at photolysing all of the compounds in the study. Quantum yields were determined at 390 nm using a monochromator for wavelength selection utilizing a high pressure mercury lamp as the light source.
Photoproduct 26 was identified by ^1H NMR spectroscopy and elemental analysis. […] Regioisomer 28 would have shown only four vicinal couplings in the COSY spectrum. […] The compound was obtainable only as a powder, despite repeated attempts to obtain crystals for structure determination using X-ray diffraction.

Data set [1] is described as follows: Preparative photolysis with Pyrex-filtered Hanovia medium pressure mercury lamp, products quantified by NMR. It counts as physicochemical. The following applies: for chemical yield of leaving group expulsion / photoproduct formation in preparative photolysis: N2 saturated aqueous 100 mM phosphate buffer (pH 7) in CH3CN, NMR integration. Here is the method:
as §1
Similarly, preparative photolysis of […] acid 9 (LG^−=Cl^−) in N2 saturated 75% H2O in CH3CN containing 100 mM phosphate buffer (pH 7) gave the single regioisomeric photoproduct 27 in 98% yield by NMR integration, as above for 8 (LG^−=Cl^−). The regiospecificity was again established by 600 MHz ^1H NMR COSY. […] Photolysis of acid 9 (LG^−=PhS^−, HS^−, PhCH2S^−) under the same conditions as 8 (LG^−=Cl^−) also gave photoproduct 27 in 98-100% yields upon expulsion of these thiolate leaving groups. For acid 9 (LG^−=PhCH2S^−) the released benzyl thiol was quantified in photolyses of 4.5×10^−3 M solutions of 35% D2O in CD3CN containing phosphate buffer (as above) contained in NMR tubes. Yields were 96% thiol and 99% of 27 at 100% conversion of reactant by ^1H NMR spectroscopy. Very similar results were found when DMSO-d6 was the photolysis solvent.
The regiospecific formation of 26 or 27 in the preparative photolyses of ester 8 or acids 9 requires the presence of the ester and carboxylic acid substituents attached to the C-6 position of the benzothiophene ring system of the reactants. In contrast, photolyses of the unsubstituted benzothiophene ring system 7 (LG^−=Cl^−) in 16% water containing 100 mM phosphate buffer in CH3CN gave both regioisomeric photoproducts 30 and 31 as a 42:58 mixture, respectively, in 100% yield according to 400 MHz ^1H NMR spectroscopy (Scheme 6).
To determine whether a “heavy atom effect” promoted intersystem crossing of the singlet excited state to the triplet excited state, work focused upon the C-7 bromide of thioxanthone ester 10 (LG^−=Cl^−). Preparative photolysis of ester 10 in N2 saturated 19% H2O in CH3CN containing 100 mM phosphate buffer (pH 7), as above for ester 8 (LG^−=Cl^−), exclusively gave regioisomer 32 in 99% yield, and 33 was not observed by ^1H NMR spectroscopy of the photolysate (Scheme 7).
A 0.010 M solution of 8 (LG^−=Cl^−) in N2 saturated 17% H2O in CH3CN containing 100 mM phosphate buffer at pH 7 was irradiated with a 450 W Hanovia medium pressure mercury lamp with a Pyrex filter for 90 min. The photoproduct was isolated by filtration. The photoproduct was washed with H2O and a small amount of CHCl3 and dried under vacuum. The product was a yellow powder, mp >300° C. […] A COSY spectrum in d6-DMSO was obtained (see Supporting Information).
A 0.010 M solution of 13 (LG^−=Cl^−) in N2 saturated 75% H2O in CH3CN containing 100 mM phosphate buffer at pH 7 was irradiated with a 450 W Hanovia medium pressure mercury lamp with Pyrex filter for 90 min. The photolysate was acidified to pH 2 with conc. HCl to precipitate the photoproduct carboxylic acid 27. The photoproduct was obtained by filtration, washing with H2O, and drying under vacuum, as a yellow powder, mp >300° C.
A 0.010 M solution of 7 (LG^−=Cl^−) in N2 saturated 17% H2O in CH3CN containing 100 mM phosphate buffer at pH 7 was irradiated with a 450 W Hanovia medium pressure mercury lamp with a Pyrex filter for 90 min. The photoproduct was isolated by filtration as a mixture of two isomers, 30, 31. The mixture of product isomers was dissolved in hot DMSO. Solid photoproduct isomer 31 was obtained upon cooling of the hot DMSO and filtration. Photoproduct isomer 31 was washed with water and methanol and dried under vacuum to obtain 31 as floppy powder, mp >300° C. Solid photoproduct isomer 30 was obtained upon addition of water to the above DMSO filtrate by filtration, after washing with water and methanol. The photoproduct isomer 30 was crystallized from CHCl3 to give a yellow crystalline solid, mp 271-273° C. […]

Data set [2] can be described thus: Product quantum yield determination for photochemical leaving group expulsion at 390 nm. It counts as physicochemical. As to conditions: for product quantum yield Φ / quantum yield Φ for formation of 27: 390 nm; for product quantum yield Φ: N2 saturated 19% H2O in dioxane containing 100 mM buffer (1.8×10^−3 M for 8; similar conditions for 7), products quantified by NMR; for quantum yield Φ for formation of 27: 2.0×10^−3 M acid in N2 saturated 75% aq buffer in CH3CN. The method, then: as §1
A semi-micro optical bench was used for quantum yield determinations, similar to the apparatus described by Zimmerman.^32 Light from a 200 W high-pressure mercury lamp was passed through an Oriel monochromator, which was set to 390 nm wavelengths. The light was collimated through a lens. A fraction of the light was diverted 90° by a beam splitter to a 10×3.6 cm side quartz cylindrical cell containing an actinometer. The photolysate was contained in a 10×1.8 cm quartz cylindrical cell of 25 mL volume. The concentrations of the reactants were 0.0018-0.0030 M. All quantum yields reported herein were the average of two or more independent runs. Behind the photolysate was mounted a quartz cylindrical cell containing 25 mL of actinometer. Light output was monitored by ferrioxalate actinometery using the splitting ratio technique.
For 7 (LG^−=Cl^−), 8 (LG^−=Cl^−), and 10 (LG^−=Cl^−) 50 mL of water was added to the photolysate, and the diluted photolysate was extracted four times with 30 mL of CH2Cl2. The combined extracts were washed twice with 30 mL water, brine, and concentrated in vacuo. The residue was dissolved in d6-DMSO. DMF was added as a standard for NMR analyses (vide infra). However, for 7 (LG^−=Cl^−) the NMR solvent was CDCl3 and the NMR standard was DMSO.
For 9 (LG^−=Cl^−, PhS^−, HS^−, PhCH2S^−) the photolysate was adjusted to pH 2 by addition of 3 N HCl. The resultant precipitate was collected by suction filtration and washed with 50 mL water. The precipitate was transferred to a flask, and any untransferred precipitate was dissolved in DMSO and combined with the transferred precipitate. The DMSO was evaporated to dryness under vacuum and DMSO-d6 was added along with DMF as a standard for NMR analysis.
Products were analyzed by ^1H NMR spectroscopy using DMF or DMSO as the internal standard and conversions were 12-16%. At the concentrations used most of the incident light would have been absorbed near the front face of the photolysis cell, raising the concern that the photoproducts formed during the photolyses could competitively absorb the incident light, reducing the light absorbed by the reactants. This internal filter effect would depress the observed Φ values below the actual values. In the case of 8 (LG^−=Cl^−) the Φ was thus redetermined at an 18-fold lower concentration of 1.0×10^−4 M of reactant and found to be within experimental error of the value obtained at higher concentration at 14% conversions for duplicate runs. Due to the very low concentrations of the photoproduct 26 formed, it had to be quantified by absorption spectroscopy of the exposed photolysates without any workup. The product absorption at 432 nm was deconvoluted from the tailing absorption of reactant using Origin 8.6 software (OriginLab). After deconvolution, concentrations were obtained from a calibration curve constructed from known mixtures of reactant and product.

Data set [3] in a line: Photolysis with 120 W sunlamp for 72 h. It counts as physicochemical. As to conditions: gives exclusively product 26 or 27. Here is the method:
The photolyses of ester 8 (LG^−=Cl^−) and acids 9 (LG^−=Cl^−, PhS^−, HS^−, PhCH2S) were repeated with a 120 W sunlamp for 72 h under otherwise the same conditions described above for the Hanovia runs.

For data set [4] the following is noted: cited from earlier work.
Setting [5] is: 4.5×10^−3 M in 35% D2O in CD3CN containing phosphate buffer, 100% conversion, 1H NMR.

Like-named read-outs stand apart in the source and are kept apart here.

The values that follow come from US8703970B2, “Compounds having photochemically removable protecting groups based on an electrocyclic reaction between a chromophore attached via an anilide group to a benzothiophene ring” (Marquette University, priority 2012, dated 2014).

“6-methylcarboxylate-[1]benzothiopheno[2,3-c]benzo[a]anthracene-4-methyl-4H-7-thia-4-aza-3,12-dione [compound 26]”: the “ε at long wavelength maximum” value in “Absorption spectra” (432 nm, aq dioxane containing phosphate buffer) was 10300 M⁻¹ cm⁻¹. Further, the “long wavelength absorption maximum” value in the data set “Absorption spectra” (aq dioxane containing phosphate buffer) came out at 432 nm.

`CN(C(=O)c1sc2ccccc2c1Cl)c1ccc2sc3ccccc3c(=O)c2c1` [7 (LG^−=Cl^−), 3-chloro-benzo[b]thiophene-2-carboxylic acid methyl-(9-oxo-9H-thioxanthen-2-yl)amide]: the “chemical yield of leaving group expulsion / photoproduct formation in preparative photolysis” value in data set [1] was found to be 100%. For the same compound, in data set [2], the “product quantum yield Φ” value amounted to 0.069.

As to `CN(C(=O)c1sc2cc(C(=O)O)ccc2c1Cl)c1ccc2sc3ccccc3c(=O)c2c1` [9 (LG^−=Cl^−), 3-chloro-2-[methyl-(9-oxo-9H-thioxanthen-2-yl)-carbamoyl]-benzo[b]thiophene-6-carboxylic acid], the melting point (as a rule, the temperature of the solid-liquid transition) was 286 to 287 °C. The “chemical yield of leaving group expulsion / photoproduct formation in preparative photolysis” value in data set [1] is listed as 98%. Besides, in data set [3], the “leaving group expulsion with sunlamp” value is “essentially quantitatively”. Moreover, the “ε at absorption maximum” value in “Absorption spectra” (385 nm, aqueous dioxane or acetonitrile) stood at 4200 M⁻¹ cm⁻¹. The same compound yielded an absorption maximum in the data set “Absorption spectra” (aqueous dioxane or acetonitrile) of 385 nm. For the same compound, in data set [2], the “quantum yield Φ for formation of 27” value is listed as 0.034.

`CN(C(=O)c1sc2cc(C(=O)O)ccc2c1S)c1ccc2sc3ccccc3c(=O)c2c1` [9 (LG^−=HS^−), 3-mercapto-2-[methyl-(9-oxo-9H-thioxanthen-2-yl)-carbamoyl]-benzo[b]thiophene-6-carboxylic acid] showed a melting point of 210 to 212 °C. In data set [3], the “leaving group expulsion with sunlamp” value is on record as “essentially quantitatively”. Further, the “quantum yield Φ for formation of 27” value in data set [2] worked out at 0.0079.

The compound `CN(C(=O)c1sc2cc(C(=O)O)ccc2c1SCc1ccccc1)c1ccc2sc3ccccc3c(=O)c2c1` [9 (LG^−=PhCH2S^−), 3-benzylsulfanyl-2-[methyl-(9-oxo-9H-thioxanthen-2-yl)-carbamoyl]-benzo[b]thiophene-6-carboxylic acid] displayed a melting point of 151 to 152 °C. Also, in data set [1] (setting [5]), the “yield of 27” value was found to be 99% and the “yield of released benzyl thiol” value came out at 96%. Moreover, the “leaving group expulsion with sunlamp” value in data set [3] is “essentially quantitatively”. The “quantum yield Φ for formation of 27” value in data set [2] was found to be 0.011.

As to `CN(C(=O)c1sc2cc(C(=O)O)ccc2c1Sc1ccccc1)c1ccc2sc3ccccc3c(=O)c2c1` [9 (LG^−=PhS^−), 2-[methyl-(9-oxo-9H-thioxanthen-2-yl)-carbamoyl]-3-phenylsulfanyl-benzo[b]thiophene-6-carboxylic acid], the melting point is 278 to 279 °C. Further, the “leaving group expulsion with sunlamp” value in data set [3] was “essentially quantitatively”. The “quantum yield Φ for formation of 27” value in data set [2] is 0.017.

Take `COC(=O)c1ccc2c(Cl)c(C(=O)N(C)c3ccc4sc5ccc(Br)cc5c(=O)c4c3)sc2c1` [10 (LG^−=Cl^−), 2-[(7-bromo-9-oxo-9H-thioxanthen-2-yl)-methyl-carbamoyl]-3-chloro-benzo[b]thiophene-6-carboxylic acid methyl ester]: the melting point lay within 237 to 239 °C. Besides, the “chemical yield of leaving group expulsion / photoproduct formation in preparative photolysis” value in data set [1] came to 99%. Further, the “product quantum yield Φ” value in data set [2] worked out at 0.053. For the same compound, in data set [2] (bromo ester 10 vs ester 8), the “quantum yield higher than Φ=0.039 of ester 8 (LG^−=Cl^−)” value was 38%.

Take `O=c1c2ccccc2sc2ccccc12` [thioxanthone]: the triplet lifetime is on record as 6.7 μs in data set [4] (in CH3CN) and 13.3 μs in data set [4] (polar protic solvent (methanol)). Further, the triplet yield in data set [4] (nonpolar hydrocarbon solvent (cyclohexane)) is 0.85; in data set [4] (polar, protic solvent (CH3OH)) it was 0.56.
